Measured values taken from patent US7759345B2, “Antitumoral derivatives of ET-743” (priority 2001, dated 2010).
Where two headings read alike, the source gives them in different places.

Columns and labels:
A-549 = test: Inhibition of cell growth by counting cells, A-549; format: cell-based, human; conditions: three days of incubation, read-out: IC50 (molar) A-549
Procedure: (§1) 1°.—Inhibition of Cell Growth by Counting Cells.
(§2) This form of the assay employs 24 well multidishes of 16 mm diameter (Bergeron, 1984; Schroeder, 1981). The tumor cell lines employed are: P-388 (ATCC CCL 46), suspension culture of a lymphoid neoplasm from a DBA/2 mouse; A-549 (ATCC CCL 185), monolayer culture of a human lung carcinoma; HT-29 (ATCC HTB-38), monolayer culture of a human colon carcinoma; MEL-28 (ATCC HTB-72), monolayer culture of a human melanoma and DU-145 (ATCC HTB-81), monolayer culture of a human prostate carcinoma.
(§3) Cells were maintained, in logarithmic phase of growth in Eagle's Minimum Essential Medium, with Earle's Balanced Salts, with non-essential amino acids, with 2.0 mM L-Glutamine, without sodium bicarbonate (EMEM/neaa), supplemented with 10% Fetal Calf Serum (FCS), 10^−2 M. sodium bicarbonate and 0.1 U/l penicillin G+0.1 g/l streptomycin sulfate. For the experiments, cells are harvested from subconfluent cultures using trypsin and resuspended in fresh medium before plating.
(§4) A-549, HT-29, MEL-28 and DU-145 cells were seeded into 16 mm diameter wells at 1×10^4 cells per well in 1 ml aliquots of EMEM 5% FCS containing different concentrations of the sample to be tested. A separate set of cultures without drug was seeded as control of growth, to ensure that cells remained in exponential phase of growth. All determinations are carrying out in duplicate. After three days of incubation at 37° C., 5% CO2 in a 98% humid atmosphere cells were stained with 0.1% crystal violet. An approximately IC50 was determined by comparing the growth in wells with drug to the growth in wells control.
(§5) For quantifying the activity, after the incubation time, cells are trypsinized and counted in a Coulter Counter ZM. All counts (net cells per well), represent the average of duplicate wells. % G, percent of growth relative to cultures without drug. The results of these assays are used to generate dose-response curves from which more precise IC50 values are determined (sample concentration which produces 50% cell growth inhibition).
(§6) Obtained results may predict the usefulness of a certain drug as a potential cancer treatment. For this technique, compounds which show IC50 values smaller than 1 μg/ml are selected to continue with further studies. IC50's data allow to predict that not only could a drug be cystostatic, but also it could have a potential in terms of tumor reduction.

HT-29 = test: Inhibition of cell growth by counting cells, HT-29; format: cell-based, human; conditions: three days of incubation, read-out: IC50 (molar) HT-29
Procedure: as §1, §2, §3, §4, §5, §6

| SMILES | IC50 (A-549; Homo sapiens, A549, 72 h) [nM] | IC50 (HT-29; Homo sapiens, HT-29, 72 h) [nM] | IC50 (A-549) [nM] | IC50 (HT-29) [nM] |
| --- | --- | --- | --- | --- |
| CCCC(=O)Oc1c(C)c2c(c3c1[C@H]1SC[C@]4(NCCc5cc(O)c(OC)cc54)C(=O)OC[C@@H]3N3C1[C@H]1c4c(cc(C)c(OC)c4O)C[C@@H]([C@@H]3C#N)N1C)OCO2 (stereo partly drawn) [Compound 139] | 1.25 | 1.25 |  |  |
| CCOc1c(C)c2c(c3c1[C@H]1SC[C@]4(NCCc5cc(O)c(OC)cc54)C(=O)OC[C@@H]3N3C1[C@H]1c4c(cc(C)c(OC)c4OCC)C[C@@H]([C@@H]3C#N)N1C)OCO2 (stereo partly drawn) [Compound 152] | 12.8 | 12.8 |  |  |
| CCCC(=O)Oc1c(C)c2c(c3c1[C@H]1SC[C@]4(NCCc5cc(O)c(OC)cc54)C(=O)OC[C@@H]3N3C1[C@H]1c4c(cc(C)c(OC)c4OC(=O)CCC)C[C@@H]([C@@H]3C#N)N1C)OCO2 (stereo partly drawn) [Compound 140] | 1.15 | 1.15 |  |  |
| COc1cc2c(cc1O)CCN[C@]21CS[C@@H]2c3c(OC(C)=O)c(C)c4c(c3[C@H](COC1=O)N1C2[C@H]2c3c(cc(C)c(O)c3O)C[C@@H]([C@@H]1O)N2C)OCO4 (stereo partly drawn) [Compound 221] | 1.34 | 1.34 |  |  |
| C=CCOc1c(C)c2c(c3c1[C@H]1SC[C@]4(NCCc5cc(O)c(OC)cc54)C(=O)OC[C@@H]3N3C1[C@H]1c4c(cc(C)c(OC)c4OCC=C)C[C@@H]([C@@H]3C#N)N1C)OCO2 (stereo partly drawn) [Compound 156] | 12.4 | 12.4 |  |  |
| CCCCCCCCCCCCCCCC(=O)Oc1cc2c(cc1OC)[C@@]1(CS[C@@H]3c4c(OC(C)=O)c(C)c5c(c4[C@H](COC1=O)N1C3[C@@H]3N[C@@H](Cc4cc(C)c(OC)c(OC(=O)CCCCCCCCCCCCCCC)c43)[C@@H]1O)OCO5)NCC2 (stereo partly drawn) [Compound 216] | 81.6 | 81.6 |  |  |
| COc1cc2c(cc1O)CCN[C@]21CS[C@@H]2c3c(OCc4ccccc4)c(C)c4c(c3[C@H](COC1=O)N1C2[C@H]2c3c(cc(C)c(OC)c3OCc3ccccc3)C[C@@H]([C@@H]1C#N)N2C)OCO4 (stereo partly drawn) [Compound 158] | 1.1 | 1.1 |  |  |
| COc1cc2c(cc1OC(=O)OCc1ccccc1)CCN[C@]21CS[C@@H]2c3c(OC(C)=O)c(C)c4c(c3[C@H](COC1=O)N1C2[C@H]2c3c(cc(C)c(OC)c3OC(=O)OCc3ccccc3)C[C@@H]([C@@H]1O)N2C)OCO4 (stereo partly drawn) [Compound 85] | 9.71 | 9.71 |  |  |
| COc1cc2c(cc1O)CCN[C@]21CS[C@@H]2c3c(OC(=O)/C=C/c4ccccc4)c(C)c4c(c3[C@H](COC1=O)N1C2[C@H]2c3c(cc(C)c(OC)c3OC(=O)/C=C/c3ccccc3)C[C@@H]([C@@H]1O)N2C)OCO4 (stereo partly drawn) [Compound 162] | 5.1 | 5.1 |  |  |
| COc1cc2c(cc1O)CCN[C@]21CS[C@@H]2c3c(OCc4ccccc4)c(C)c4c(c3[C@H](COC1=O)N1C2[C@H]2c3c(cc(C)c(OC)c3O)C[C@@H]([C@@H]1O)N2C)OCO4 (stereo partly drawn) [Compound 180] | 0.618 | 0.618 |  |  |
| CCOc1c(C)c2c(c3c1[C@H]1SC[C@]4(NCCc5cc(O)c(OC)cc54)C(=O)OC[C@@H]3N3C1[C@H]1c4c(cc(C)c(OC)c4O)C[C@@H]([C@@H]3C#N)N1C)OCO2 (stereo partly drawn) [Compound 151] | 0.132 | 0.132 |  |  |
| COc1cc2c(cc1OC(=O)CCc1ccccc1)CCN[C@]21CS[C@@H]2c3c(OC(C)=O)c(C)c4c(c3[C@H](COC1=O)N1C2[C@H]2c3c(cc(C)c(OC)c3O)C[C@@H]([C@@H]1C#N)N2C)OCO4 (stereo partly drawn) [Compound 11] | 0.554 | 0.554 |  |  |
| COc1cc2c(cc1OC(=O)[C@H](C)NC(=O)OC(C)(C)C)CCN[C@]21CS[C@@H]2c3c(OC(C)=O)c(C)c4c(c3[C@H](COC1=O)N1C2[C@H]2c3c(cc(C)c(OC)c3O)C[C@@H]([C@@H]1C#N)N2C)OCO4 (stereo partly drawn) [Compound 24] | 0.531 | 0.531 |  |  |
| COc1cc2c(cc1OC(=O)OC(C)(C)C)CCN[C@]21CS[C@@H]2c3c(OC(=O)CCCl)c(C)c4c(c3[C@H](COC1=O)N1C2[C@H]2c3c(cc(C)c(OC)c3O)C[C@@H]([C@@H]1C#N)N2C)OCO4 (stereo partly drawn) [Compound 116] | 0.109 | 0.109 |  |  |
| COc1cc2c(cc1OC(=O)CCCl)CCN[C@]21CS[C@@H]2c3c(OC(C)=O)c(C)c4c(c3[C@H](COC1=O)N1C2[C@H]2c3c(cc(C)c(OC)c3O)C[C@@H]([C@@H]1C#N)N2C)OCO4 (stereo partly drawn) [Compound 12] | 0.116 | 0.116 |  |  |
| CCCCCCCC(=O)Oc1c(C)c2c(c3c1[C@H]1SC[C@]4(NCCc5cc(O)c(OC)cc54)C(=O)OC[C@@H]3N3C1[C@H]1c4c(cc(C)c(OC)c4OC(=O)CCCCCCC)C[C@@H]([C@@H]3O)N1C)OCO2 (stereo partly drawn) [Compound 169] | 1.03 | 1.03 |  |  |
| COc1cc2c(cc1O)CCN[C@]21CS[C@@H]2c3c(OCc4ccccc4)c(C)c4c(c3[C@H](COC1=O)N1C2[C@H]2c3c(cc(C)c(OC)c3O)C[C@@H]([C@@H]1C#N)N2C)OCO4 (stereo partly drawn) [Compound 157] | 0.122 | 0.122 |  |  |
| CCCC(=O)Oc1cc2c(cc1OC)[C@@]1(CS[C@@H]3c4c(OC(C)=O)c(C)c5c(c4[C@H](COC1=O)N1C3[C@H]3c4c(cc(C)c(OC)c4OC(=O)CCC)C[C@@H]([C@@H]1O)N3C)OCO5)NCC2 (stereo partly drawn) [Compound 81] | 5.54 | 5.54 |  |  |
| COc1cc2c(cc1OC(=O)OC(C)(C)C)CCN[C@]21CS[C@@H]2c3c(OC(C)=O)c(C)c4c(c3[C@H](COC1=O)N1C2[C@H]2c3c(cc(C)c(OC)c3OC)C[C@@H]([C@@H]1C#N)N2C)OCO4 (stereo partly drawn) [Compound 45] | 0.113 | 0.113 |  |  |
| COc1cc2c(cc1OC(=O)/C=C/c1ccccc1)CCN[C@]21CS[C@@H]2c3c(OC(C)=O)c(C)c4c(c3[C@H](COC1=O)N1C2[C@H]2c3c(cc(C)c(OC)c3OC(=O)/C=C/c3ccccc3)C[C@@H]([C@@H]1O)N2C)OCO4 (stereo partly drawn) [Compound 84] | 48.9 | 48.9 |  |  |
| CCCC(=O)Oc1c(C)c2c(c3c1[C@H]1SC[C@]4(NCCc5cc(O)c(OC)cc54)C(=O)OC[C@@H]3N3C1[C@H]1c4c(cc(C)c(OC)c4OC(=O)CCC)C[C@@H]([C@@H]3O)N1C)OCO2 (stereo partly drawn) [Compound 164] | 11.6 | 11.6 |  |  |
| C=CCOC(=O)Oc1c(C)c2c(c3c1[C@H]1SC[C@]4(NCCc5cc(O)c(OC)cc54)C(=O)OC[C@@H]3N3C1[C@H]1c4c(cc(C)c(OC)c4O)C[C@@H]([C@@H]3C#N)N1C)OCO2 (stereo partly drawn) [Compound 141] |  |  | 0.123 | 0.123 |
| CCCCCCCC(=O)Oc1c(C)c2c(c3c1[C@H]1SC[C@]4(NCCc5cc(O)c(OC)cc54)C(=O)OC[C@@H]3N3C1[C@H]1c4c(cc(C)c(OC)c4OC(=O)CCCCCCC)C[C@@H]([C@@H]3C#N)N1C)OCO2 (stereo partly drawn) [Compound 145] | 102 | 102 |  |  |
| CCCCCCCC(=O)Oc1cc2c(cc1OC)[C@@]1(CS[C@@H]3c4c(OC(C)=O)c(C)c5c(c4[C@H](COC1=O)N1C3[C@@H]3N[C@@H](Cc4cc(C)c(OC)c(OC(=O)CCCCCCC)c43)[C@@H]1O)OCO5)NCC2 (stereo partly drawn) [Compound 214] | 5 | 5 |  |  |
| COc1cc2c(cc1O)CCN[C@]21CS[C@@H]2c3c(OC(=O)C(F)(F)F)c(C)c4c(c3[C@H](COC1=O)N1C2[C@H]2c3c(cc(C)c(OC)c3OC(=O)C(F)(F)F)C[C@@H]([C@@H]1C#N)N2C)OCO4 (stereo partly drawn) [Compound 160] | 1.09 | 1.09 |  |  |
| C=CCOC(=O)Oc1c(C)c2c(c3c1[C@H]1SC[C@]4(NCCc5cc(OC(=O)OC(C)(C)C)c(OC)cc54)C(=O)OC[C@@H]3N3C1[C@H]1c4c(cc(C)c(OC)c4O)C[C@@H]([C@@H]3C#N)N1C)OCO2 (stereo partly drawn) [Compound 115] | 0.11 | 0.11 |  |  |
| CCCOc1c(C)c2c(c3c1[C@H]1SC[C@]4(NCCc5cc(OC(=O)OC(C)(C)C)c(OC)cc54)C(=O)OC[C@@H]3N3C1[C@H]1c4c(cc(C)c(OC)c4OCCC)C[C@@H]([C@@H]3C#N)N1C)OCO2 (stereo partly drawn) [Compound 131] | 110 | 110 |  |  |
| CCOc1c(C)c2c(c3c1[C@H]1SC[C@]4(NCCc5cc(O)c(OC)cc54)C(=O)OC[C@@H]3N3C1[C@H]1c4c(cc(C)c(OC)c4O)C[C@@H]([C@@H]3O)N1C)OCO2 (stereo partly drawn) [Compound 177] | 0.134 | 0.134 |  |  |
| CCCOc1c(C)c2c(c3c1[C@H]1SC[C@]4(NCCc5cc(OC(=O)OC(C)(C)C)c(OC)cc54)C(=O)OC[C@@H]3N3C1[C@H]1c4c(cc(C)c(OC)c4O)C[C@@H]([C@@H]3C#N)N1C)OCO2 (stereo partly drawn) [Compound 130] | 1.15 | 1.15 |  |  |
| CCCCCCCC(=O)Oc1cc2c(cc1OC)[C@@]1(CS[C@@H]3c4c(OC(C)=O)c(C)c5c(c4[C@H](COC1=O)N1C3[C@H]3c4c(cc(C)c(OC)c4OC(=O)CCCCCCC)C[C@@H]([C@@H]1O)N3C)OCO5)NCC2 (stereo partly drawn) [Compound 82] | 98.6 | 98.6 |  |  |
